Measurements as given in patent US11524966B1 (Valo Early Discovery, Inc., priority 2017, dated 2022).

Molecular target: T1, USP28 (His-tagged USP28-FL-mammalian) (Homo sapiens, UniProt Q96RU2)
T1 construct: Expression of USP28 (1-1077)-TEV-6*His (pTT5 vector); made in house; host or cells: Expi293f cells (pTT5 vector)
T1 sequence (Q96RU2 1-1077): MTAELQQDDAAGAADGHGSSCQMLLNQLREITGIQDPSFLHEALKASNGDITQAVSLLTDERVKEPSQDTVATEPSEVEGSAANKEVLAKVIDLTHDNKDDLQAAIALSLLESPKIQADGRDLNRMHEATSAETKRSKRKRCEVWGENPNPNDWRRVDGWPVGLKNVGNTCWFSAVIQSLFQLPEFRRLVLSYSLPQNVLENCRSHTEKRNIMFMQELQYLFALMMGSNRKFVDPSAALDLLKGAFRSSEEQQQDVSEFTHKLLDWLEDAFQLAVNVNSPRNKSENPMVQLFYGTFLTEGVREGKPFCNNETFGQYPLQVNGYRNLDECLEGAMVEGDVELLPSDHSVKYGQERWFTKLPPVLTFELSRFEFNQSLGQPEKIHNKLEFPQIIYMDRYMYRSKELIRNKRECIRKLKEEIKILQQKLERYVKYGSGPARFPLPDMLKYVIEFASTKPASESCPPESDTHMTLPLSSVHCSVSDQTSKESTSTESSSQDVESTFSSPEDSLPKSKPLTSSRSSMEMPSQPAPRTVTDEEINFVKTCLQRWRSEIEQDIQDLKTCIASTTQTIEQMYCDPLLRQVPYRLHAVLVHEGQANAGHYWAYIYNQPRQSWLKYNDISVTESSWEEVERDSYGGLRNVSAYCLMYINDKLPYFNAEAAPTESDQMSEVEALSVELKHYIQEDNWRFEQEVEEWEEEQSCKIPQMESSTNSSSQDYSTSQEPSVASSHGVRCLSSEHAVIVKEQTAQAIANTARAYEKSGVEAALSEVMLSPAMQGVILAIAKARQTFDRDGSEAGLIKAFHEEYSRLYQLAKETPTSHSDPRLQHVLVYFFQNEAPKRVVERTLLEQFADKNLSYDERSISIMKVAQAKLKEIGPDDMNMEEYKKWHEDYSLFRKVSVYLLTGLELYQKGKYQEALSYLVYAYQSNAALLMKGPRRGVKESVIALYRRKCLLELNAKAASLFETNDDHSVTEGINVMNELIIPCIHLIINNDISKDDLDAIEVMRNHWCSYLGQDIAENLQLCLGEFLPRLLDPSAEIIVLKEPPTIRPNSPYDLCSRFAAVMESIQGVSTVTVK
Test: Ubiquitin-Rhodamine 110 Assay for USP28 Activity, Example A-1(a)
Type: biochemical
Conditions: Ubiquitin-Rhodamine 110 assay, Example A-1(a); read-out: USP28 A-1(a) IC50 range
Outline: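 Full-length His-tagged USP28 (1-1077, Expi293F-expressed; […]) was preincubated 30 min with compound (25 μM–1.3 nM, 10-point 3-fold) in 20 mM Tris-HCl pH 8.0, 3 mM BME, 0.03% BGG, 0.01% Triton X-100. Ub-Rh110 (25 nM) was then added for 45 min at room temperature, stopped with citric acid, and read by fluorescence (485/535 nm).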

Row | Compound | IC50 [nM]
1 | Cc1ccc2c(N)c(C(=O)N[C@H]3COc4cc(N5C[C@H](N)[C@]6(CCCO6)C5)ccc4C3)sc2n1 [Example 307, 3-amino-N-[(3R)-7-[(5S,9S)-9-amino-1-oxa-7-azaspiro[4.4]nonan-7-yl]-3,4-dihydro-2H-1-benzopyran-3-yl]-6-methylthieno[2,3-b]pyridine-2-carboxamide] | 1 to 50
2 | Cc1ccc2c(N)c(C(=O)N[C@H]3COc4cc(N5C[C@@H](N)[C@@]6(CCCO6)C5)ccc4C3)sc2n1 [Example 308, 3-amino-N-[(3R)-7-[(5R,9R)-9-amino-1-oxa-7-azaspiro[4.4]nonan-7-yl]-3,4-dihydro-2H-1-benzopyran-3-yl]-6-methylthieno[2,3-b]pyridine-2-carboxamide] | 50 to 200
3 | Cc1ccc2c(N)c(C(=O)N[C@H]3COc4cc(N5C[C@@H](N)[C@]6(CCCO6)C5)ccc4C3)sc2n1 [Example 309, 3-amino-N-[(3R)-7-[(5S,9R)-9-amino-1-oxa-7-azaspiro[4.4]nonan-7-yl]-3,4-dihydro-2H-1-benzopyran-3-yl]-6-methylthieno[2,3-b]pyridine-2-carboxamide] | 1 to 50
4 | Cc1ccc2c(N)c(C(=O)N[C@H]3COc4cc(N5C[C@H](N)[C@@]6(CCCO6)C5)ccc4C3)sc2n1 [Example 310, 3-amino-N-[(3R)-7-[(5R,9S)-9-amino-1-oxa-7-azaspiro[4.4]nonan-7-yl]-3,4-dihydro-2H-1-benzopyran-3-yl]-6-methylthieno[2,3-b]pyridine-2-carboxamide] | 1 to 50
5 | CN[C@H]1CN(c2ccc3c(n2)CC[C@H](NC(=O)c2sc4nc(C)ccc4c2N)C3)C[C@@H]1OC [Example 311, 3-amino-N-[(6S)-2-[(3S,4S)-3-methoxy-4-(methylamino)pyrrolidin-1-yl]-5,6,7,8-tetrahydroquinolin-6-yl]-6-methylthieno[2,3-b]pyridine-2-carboxamide] | 50 to 200
6 | CN[C@H]1CN(c2ccc3c(n2)CC[C@H](NC(=O)c2sc4nc(C)cc(C)c4c2N)C3)C[C@@H]1OC [Example 312, 3-amino-N-[(6S)-2-[(3S,4S)-3-methoxy-4-(methylamino)pyrrolidin-1-yl]-5,6,7,8-tetrahydroquinolin-6-yl]-4,6-dimethylthieno[2,3-b]pyridine-2-carboxamide] | 50 to 200
7 | CCOC[C@@H]1CN(c2ccc3c(c2)OC[C@H](NC(=O)c2sc4nc(C)ccc4c2N)C3)C[C@@H]1N [Example 313, 3-amino-N-[(3R)-7-[(3R,4R)-3-amino-4-(ethoxymethyl)pyrrolidin-1-yl]-3,4-dihydro-2H-1-benzopyran-3-yl]-6-methylthieno[2,3-b]pyridine-2-carboxamide] | 1 to 50
8 | CCOC[C@H]1CN(c2ccc3c(c2)OC[C@H](NC(=O)c2sc4nc(C)ccc4c2N)C3)C[C@H]1N [Example 314, 3-amino-N-[(3R)-7-[(3S,4S)-3-amino-4-(ethoxymethyl)pyrrolidin-1-yl]-3,4-dihydro-2H-1-benzopyran-3-yl]-6-methylthieno[2,3-b]pyridine-2-carboxamide] | 1 to 50
9 | CO[C@H]1CCN(c2ccc3c(c2)OC[C@H](NC(=O)c2sc4nc(C)cc(C)c4c2N)C3)C[C@@H]1N [Example 317, 3-amino-N-[(3R)-7-[(3S,4S)-3-amino-4-methoxypiperidin-1-yl]-3,4-dihydro-2H-1-benzopyran-3-yl]-4,6-dimethylthieno[2,3-b]pyridine-2-carboxamide] | 1 to 50
10 | CO[C@@H]1CCN(c2ccc3c(c2)OC[C@H](NC(=O)c2sc4nc(C)cc(C)c4c2N)C3)C[C@H]1N [Example 318, 3-amino-N-[(3R)-7-[(3R,4R)-3-amino-4-methoxypiperidin-1-yl]-3,4-dihydro-2H-1-benzopyran-3-yl]-4,6-dimethylthieno[2,3-b]pyridine-2-carboxamide] | 1 to 50
11 | Cc1cnc2c(N)c(C(=O)N[C@H]3CCc4cc(N5C[C@H](OC(C)C)[C@@H](N)C5)ccc4C3)sc2n1 [Example 319, 7-amino-N-[(2S)-6-[(3S,4S)-3-amino-4-(propan-2-yloxy)pyrrolidin-1-yl]-1,2,3,4-tetrahydronaphthalen-2-yl]-3-methylthieno[2,3-b]pyrazine-6-carboxamide] | 50 to 200
12 | Cc1ccc2c(N)c(C(=O)N[C@H]3CCc4nc(N5C[C@H](OC(C)C)[C@@H](N)C5)ccc4C3)sc2n1 [Example 320] | 50 to 200
13 | Cc1ccc2c(N)c(C(=O)N[C@H]3CCc4nc(N5C[C@H](N)[C@H](OC(C)C)C5)ccc4C3)sc2n1 [Example 321, 3-amino-N-[(6S)-2-[(3S,4R)-3-amino-4-(propan-2-yloxy)pyrrolidin-1-yl]-5,6,7,8-tetrahydroquinolin-6-yl]-6-methylthieno[2,3-b]pyridine-2-carboxamide] | 200 to 2000
14 | Cc1ccc2c(N)c(C(=O)N[C@H]3CCc4nc(N5C[C@@H](N)[C@@H](OC(C)C)C5)ccc4C3)sc2n1 [Example 322, 3-amino-N-[(6S)-2-[(3R,4S)-3-amino-4-(propan-2-yloxy)pyrrolidin-1-yl]-5,6,7,8-tetrahydroquinolin-6-yl]-6-methylthieno[2,3-b]pyridine-2-carboxamide] | 200 to 2000
15 | CCO[C@H]1CN(c2ccc3c(c2)OC[C@H](NC(=O)c2sc4nc(C)cc(C)c4c2N)C3)C[C@H]1N [Example 324, 3-amino-N-[(3R)-7-[(3R,4S)-3-amino-4-ethoxypyrrolidin-1-yl]-3,4-dihydro-2H-1-benzopyran-3-yl]-4,6-dimethylthieno[2,3-b]pyridine-2-carboxamide] | 50 to 200
16 | CO[C@@]1(C)CN(c2ccc3c(n2)OC[C@H](NC(=O)c2sc4nc(C)ccc4c2N)C3)C[C@@H]1N [Example 325, 3-amino-N-[(3R)-7-[(3S,4S)-4-amino-3-methoxy-3-methylpyrrolidin-1-yl]-2H,3H,4H-pyrano[2,3-b]pyridin-3-yl]-6-methylthieno[2,3-b]pyridine-2-carboxamide] | 50 to 200
17 | CO[C@]1(C)CN(c2ccc3c(n2)OC[C@H](NC(=O)c2sc4nc(C)ccc4c2N)C3)C[C@H]1N [Example 326, 3-amino-N-[(3R)-7-[(3R,4R)-4-amino-3-methoxy-3-methylpyrrolidin-1-yl]-2H,3H,4H-pyrano[2,3-b]pyridin-3-yl]-6-methylthieno[2,3-b]pyridine-2-carboxamide] | 50 to 200
18 | COC[C@H]1CN(c2ccc3c(n2)CC[C@H](NC(=O)c2sc4nc(C)ccc4c2N)C3)C[C@@H]1N [Example 327, 3-amino-N-[(6S)-2-[(3R,4S)-3-amino-4-(methoxymethyl)pyrrolidin-1-yl]-5,6,7,8-tetrahydroquinolin-6-yl]-6-methylthieno[2,3-b]pyridine-2-carboxamide] | 50 to 200
19 | COC[C@@H]1CN(c2ccc3c(n2)CC[C@H](NC(=O)c2sc4nc(C)ccc4c2N)C3)C[C@H]1N [Example 328, 3-amino-N-[(6S)-2-[(3S,4R)-3-amino-4-(methoxymethyl)pyrrolidin-1-yl]-5,6,7,8-tetrahydroquinolin-6-yl]-6-methylthieno[2,3-b]pyridine-2-carboxamide] | 200 to 2000
20 | Cc1ccc2c(N)c(C(=O)N[C@H]3CCc4nc(N5C[C@H]6NCCC(F)(F)[C@H]6C5)ccc4C3)sc2n1 [Example 329, N-[(6S)-2-[(4aS,7aS)-4,4-difluoro-octahydro-1H-pyrrolo[3,4-b]pyridin-6-yl]-5,6,7,8-tetrahydroquinolin-6-yl]-3-amino-6-methylthieno[2,3-b]pyridine-2-carboxamide] | 50 to 200
21 | Cc1ccc2c(N)c(C(=O)N[C@H]3CCc4nc(N5C[C@@H]6NCCC(F)(F)[C@@H]6C5)ccc4C3)sc2n1 [Example 330, N-[(6S)-2-[(4aR,7aR)-4,4-difluoro-octahydro-1H-pyrrolo[3,4-b]pyridin-6-yl]-5,6,7,8-tetrahydroquinolin-6-yl]-3-amino-6-methylthieno[2,3-b]pyridine-2-carboxamide] | 50 to 200
22 | CN[C@H]1CN(c2ccc3c(n2)CC[C@H](NC(=O)c2sc4nc(C)ccc4c2N)C3)C[C@@]1(C)O [Example 331, 3-amino-N-[(6S)-2-[(3R,4S)-3-hydroxy-3-methyl-4-(methylamino)pyrrolidin-1-yl]-5,6,7,8-tetrahydroquinolin-6-yl]-6-methylthieno[2,3-b]pyridine-2-carboxamide] | 50 to 200
